From ChEMBL document CHEMBL1201862, “PubChem BioAssay data set” (2004) come the findings set out here.

Molecules are shown by their SMILES.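 Values below derive from 48-hour exposures of cells grown in 96-well plates, with endpoints linearly interpolated between the two concentrations bracketing the appropriate inhibition level. Here, GI50 denotes the concentration required for 50% inhibition of growth.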 Activity calls are given as the source filed them. Cut-off read from the data, not from the text of the source: active = GI50 up to about 1.1 µM and inactive = higher.

Assay in all cases: NCI tumour cell line growth inhibition, 48 h
Experiment [1] relates to DU-145.
The test system of experiment [2] is RXF 393.
Experiment [3] has as its system BT-549.
The subject of experiment [4] is MCF7.
For experiment [5], the system named is T47D.
The test system of experiment [6] is IGROV-1.
Experiment [7] deals with HCT-15.
Experiment [8] relates to 786-0.
The subject of experiment [9] is SF-539.
In experiment [10] the test system is COLO 205.
In experiment [11] the test system is Malme-3M.
Experiment [12] concerns TK-10.
Experiment [13] concerns UACC-62.
Experiment [14] relates to A549.
The test system of experiment [15] is U-251.
In experiment [16] the test system is SK-OV-3.
Experiment [17] relates to SK-MEL-28.
For experiment [18], the system named is RPMI-8226.
Experiment [19] concerns CCRF-CEM.
Experiment [20] concerns SN12C.

As to `O=C1N(CN2CCOCC2)CN(CN2CCOCC2)C(=O)N1Cc1ccc(-c2ccc(CN3C(=O)N(CN4CCOCC4)CN(CN4CCOCC4)C3=O)cc2)cc1`, the GI50 is 16.8 µM (inactive) in experiment [1]; 10.8 µM (inactive) in [2]; 5.87 µM (inactive) in [3]; 4 µM (inactive) in experiment [4]; 24 µM (inactive) in [5]; 11.6 µM (inactive) in experiment [6]. Also, the GI50 was 9.55 µM in experiment [7]; 9.16 µM (inactive) in experiment [8]; > 27.8 µM (inactive) in experiment [9]; > 21 µM (inactive) in experiment [10]; 13.2 µM (inactive) in experiment [11]; 16.5 µM (inactive) in experiment [12]. The GI50 in experiment [13] is 9.75 µM (inactive); in experiment [14], 20.8 µM (inactive); in [15], 16.1 µM (inactive); in experiment [16], 32.9 µM (inactive); in [17], 12.9 µM (inactive).

As to `CCC1(CC)C(=O)NN(C(=O)c2ccccc2)C1=O`, the GI50 in experiment [1], in experiment [2], in experiment [3], in experiment [4], in experiment [18] and in [5] was > 100 µM (inactive) in each case. The GI50 in experiment [6] is > 100 µM (inactive); in experiment [7], over 100 µM; in experiment [8], > 100 µM (inactive); in [10], > 100 µM (inactive); in experiment [19] it was 95.7 µM (inactive); in experiment [11], > 100 µM (inactive). Further, the GI50 in experiment [20], in experiment [12], in experiment [13], in experiment [14], in [15] and in experiment [16] was > 100 µM (inactive) throughout. The GI50 in experiment [17] was > 100 µM (inactive).

Take `COc1cc(S(=O)(=O)Nc2nc(-c3ccc(/N=C/c4ccccc4O)cc3)cs2)ccc1Cl`: the GI50 in experiment [1] is 69.2 µM (inactive); in [2], 34.3 µM (inactive); in [3] it was 37.4 µM (inactive); in [4], 27.8 µM (inactive); in [5], 27.4 µM (inactive); in experiment [6] it was 31.4 µM (inactive). The GI50 in experiment [7] was 31.6 µM; in [8], 48.2 µM (inactive); in [9], 39.4 µM (inactive); in [10], 25.7 µM (inactive); in experiment [19], 26.5 µM (inactive); in experiment [11], 40.3 µM (inactive). Further, the GI50 in experiment [20] is 17.9 µM (inactive); in experiment [12] it was 74.3 µM (inactive); in [13], 23.7 µM (inactive); in experiment [14], 41.3 µM (inactive); in experiment [15], 36.9 µM (inactive); in [16] it was 44.9 µM (inactive). For the same molecule, in experiment [17], the GI50 was 65.2 µM (inactive).

Consider `C=C(CN)CO[Si](C)(C)C(C)(C)C`, for which the GI50 in experiment [1], in [3], in [4], in experiment [18], in experiment [5] and in experiment [6] was > 100 µM (inactive) in each case. In addition, the GI50 was over 100 µM in experiment [7]; > 100 µM (inactive) in [8]; > 100 µM (inactive) in [9]; > 100 µM (inactive) in [10]; > 100 µM (inactive) in experiment [19]; > 100 µM (inactive) in experiment [11]. The GI50 in experiment [20] was > 100 µM (inactive); in experiment [12], 77.1 µM (inactive); in [13] it was > 100 µM (inactive); in [14] it was > 100 µM (inactive); in experiment [15] it was > 100 µM (inactive); in experiment [16], > 100 µM (inactive). In [17], the GI50 was > 100 µM (inactive).

In the case of `COc1ccc2c(c1)O[C@@H]1C(O)Oc3cc(OC)c(OC)cc3[C@]1(O)C2=O` (some centres not stated), the GI50 in experiment [1] is > 100 µM (inactive); in experiment [2] it was > 100 µM (inactive); in [3], 12.6 µM (inactive); in [4] it was 55.1 µM (inactive); in [18], 44.8 µM (inactive); in experiment [5] it was 31.2 µM (inactive). Moreover, the GI50 was > 100 µM (inactive) in experiment [6]; over 100 µM in [7]; > 100 µM (inactive) in experiment [8]; > 100 µM (inactive) in experiment [9]; 95.1 µM (inactive) in experiment [10]; 38.9 µM (inactive) in experiment [19]. Moreover, the GI50 in experiment [20] is > 100 µM (inactive); in experiment [12] it was > 100 µM (inactive); in [13], 78 µM (inactive); in experiment [14] it was 9.1 µM (inactive); in experiment [15] it was 59 µM (inactive); in [16] it was > 100 µM (inactive). In addition, in experiment [17], the GI50 is > 100 µM (inactive).

Take `O=C(OCC(OC(=O)c1ccccc1)C1CC(C(O)C2CCCCC2)C(=O)O1)c1ccccc1` (configuration not stated): the GI50 is > 100 µM (inactive) in [1]; > 100 µM (inactive) in experiment [2]; 53 µM (inactive) in [3]; 31.7 µM (inactive) in [4]; 24.2 µM (inactive) in experiment [18]; 37.2 µM (inactive) in experiment [5]. The GI50 was 32.2 µM (inactive) in experiment [6]; 43.2 µM in experiment [7]; > 100 µM (inactive) in [8]; 25.1 µM (inactive) in experiment [9]; 45.9 µM (inactive) in experiment [10]; 22.5 µM (inactive) in experiment [19]. For the same molecule, the GI50 is 47.6 µM (inactive) in experiment [20]; > 100 µM (inactive) in experiment [12]; > 100 µM (inactive) in experiment [13]; 71.6 µM (inactive) in experiment [15]; > 100 µM (inactive) in [16].

`COC(=O)C(Cc1ccccc1)NP(=O)(O)OCC1OC(n2cc(I)c(=O)[nH]c2=O)CC1O` (configuration not stated): the GI50 in [1], in experiment [3], in [4], in [18], in [5] and in experiment [6] was > 100 µM (inactive) each time. The GI50 in experiment [7] was over 100 µM; in experiment [8], > 100 µM (inactive); in [9], > 100 µM (inactive); in [10] it was > 100 µM (inactive); in experiment [19] it was > 100 µM (inactive); in experiment [11], > 100 µM (inactive). The GI50 in experiment [20], in [12], in experiment [13], in experiment [14], in experiment [15] and in [16] was > 100 µM (inactive) throughout. Besides, the GI50 in [17] is > 100 µM (inactive).

On to `C[C@@]12CCC3C1C=C1C(=O)c4cc(O)ccc4C(=O)[C@]1(O2)[C@@]3(C)C=O`, for which the GI50 in experiment [1] was 2.91 µM (inactive); in experiment [2], 4.3 µM (inactive); in experiment [3] it was 2.51 µM (inactive); in experiment [4] it was 3.52 µM (inactive); in experiment [18], 2.2 µM (inactive); in experiment [5] it was 3.55 µM (inactive). The GI50 in experiment [6] was 5.55 µM (inactive); in experiment [7], 2.66 µM; in experiment [8], 4.14 µM (inactive); in [9] it was 3.82 µM (inactive); in [10] it was 9.31 µM (inactive); in experiment [19], 0.977 µM (active). The GI50 in experiment [20] was 2.02 µM (inactive); in [12], 11.6 µM (inactive); in experiment [13], 7.43 µM (inactive); in [14], 12 µM (inactive); in experiment [15], 9.44 µM (inactive); in experiment [16] it was 10.2 µM (inactive).
